Patent US10858388B2, “Selective progesterone receptor modulator (SPRM) regimen” (BAYER PHARMA AKTIENGESELLSCHAFT, priority 2015, dated 2020)
Entries after “also recorded” stand apart in the source; their conditions may differ.

Legend:
Type in all cases: in vivo, human
[1] = tested on: subjects with uterine fibroids; assay: Study 15788: endometrial biopsies, PAEC and histology (Example 3)
Procedure: A randomized, parallel-group, double-blind, placebo-controlled, multi-center study to assess efficacy of different doses of Compound 1 where primary efficacy variable is Endometrium thickness and secondary efficacy variable is PAEC in subjects with uterine fibroids over a 3-month treatment [1×12 weeks/84 days]
The first endometrial biopsy was performed on Day 9+/−2 of the first or second menstrual cycle after screening visit 1, i.e. at screening visit 2.
Biopsy was determined by randomization. This means that subjects were randomized to the time point of the second biopsy and were informed about the group they are in, directly after randomization followed by stratification by dose group.
If a subject was randomized to this time point, the biopsy was scheduled on Day 9+/−2 of the first menstrual cycle after the treatment visit 2 (corresponding to Visit 5), i.e. during the last 4 weeks of study drug treatment. If no menstrual bleeding occurs between the treatment visit 2 (Visit 5) and the end of treatment (EoT) visit (Visit 6), the biopsy was performed at the end of treatment (EoT) visit (Visit 6).
(§1) If a subject was randomized to this time point, the biopsy was scheduled on Day 9+/−2 of the first menstrual cycle after the end of treatment. If no menstrual bleeding occurs until 12 weeks after end of treatment, i.e. until the follow-up visit 2 (Visit 8), a biopsy was performed at the follow-up visit 2 (Visit 8) and induction of bleeding was considered.
as §1, with “second” for “first”
as §1, with “subject is” for “subject was”, “Day 9+1-2” for “Day 9+/−2”, “the third” for “the first”, “after” for “after the”, “bleeding occurred” for “bleeding occurs”
The third endometrial biopsy was performed at the follow-up visit 3 (Visit 9), which was scheduled on Day 9+/−2 of the menstrual cycle which started following Week 20 after the end of treatment. If no bleeding episode occurred, Visit 9 was performed 24 weeks after end of treatment, i.e. Visit 9 took place 21 to 24 weeks after the end of treatment in all subjects. If the second endometrial biopsy was performed less than 6 weeks before the scheduled date of the third endometrial biopsy and pathological findings were absent, the third endometrial biopsy was not required.
After the end of treatment, subjects were followed up for 21 to 24 weeks (Follow-up period). […] In case of findings that require further follow-up, additional visits were scheduled according to normal standard practice.
Efficacy Measurement: • endometrial biopsies • cervical smear • transvaginal ultrasound TVU (endometrial thickness, ovaries)
FIG. 2: PAEC in biopsy after 1st/2nd/3rd bleeding episodes (menses). Pharmacodynamic effecs on the endometrium. Percentage of subjects with PAEC.

[2] = tested on: subjects with uterine fibroids; assay: Study 17541: endometrium thickness, 3-month vs 6-month treatment without break (Example 6); conditions: 2 mg once daily, 13 subjects, blinded, preliminary data, 3 or 6 months without break
Procedure: A randomized, parallel-group, double-blind, placebo-controlled, multi-center study to assess efficacy of a dose of 2 mg of Compound 1 where primary efficacy variable is Endometrium thickness, in subjects with uterine fibroids over 3-month vs 6-month with or without treatment break.
Route of administration: Oral
Duration of treatment: 2×12 weeks (A1) or 1×12 weeks (A2) without treatment break
Women, 18 to 50 years old, with uterine fibroids documented by transvaginal or abdominal ultrasound at screening with at least 1 uterine fibroid with largest diameter 3 cm and Heavy Menstrual Bleeding (HMB) 80∃ ml were eligible for enrolment in the study.
Number of Women: 13 subjects having finished the treatment so far.
Eligible subjects were equally randomized to one of the treatment groups (Placebo, 2 mg of Compound 1). Treatment period was started during the first three days of the bleeding episode following randomization or ongoing at randomization. The treatment period will consist of 3 months (12 weeks) or 6 months [2×12 weeks (84 days)] of daily tablet intake without treatment break. • Treatment A1: 2 mg of Compound 1 (12 weeks), 2 mg of Compound 1 (12 weeks). • Treatment A2: Placebo (12 weeks), 2 mg of Compound 1 (12 weeks).
After the end of treatment period, subjects were followed up for 12 weeks. […]

uterine fibroids = assay: Study 15788: change in volume of largest fibroid by MRI and TVU (Example 8)
Procedure: A randomized, parallel-group, double-blind, placebo-controlled, multi-center study to assess efficacy of different doses of Compound 1 where secondary efficacy variable is the change in volume of the largest fibroid in subjects wherein treatment is of 3 months [1×12 weeks (84 days)]. Doses: 0.5 mg, 1 mg, 2 mg, or 4 mg once daily Route of administration: Oral Duration of treatment: 1×12 weeks (84 days) Women, 18 to 50 years old, with uterine fibroids documented by transvaginal or abdominal ultrasound at screening with at least 1 uterine fibroid with largest diameter 3 cm and heavy menstrual bleeding (HMB) 80 ml were be eligible for enrolment in the study. The secondary efficacy variable is the percent change in volume of the largest fibroid compared to baseline (measured by MRI and TVU) • MRI: Magnetic Resonance Imaging • TVU: Transvaginal/abdominal ultrasound Ultrasound examination was performed consistent with the schedule of procedures (Table 1). For each subject, the most appropriate ultrasound method (transvaginal or abdominal) was used depending on fibroid location and this method was consistently used throughout the study. The same ultrasound machine (per site) should be used throughout the study. The 3 largest fibroids were identified during the screening period. […]

Cases of hyperplasia ([1]; endometrial biopsies): no cases of hyperplasia
PAECs during follow-up ([1]; follow-up after 12 weeks treatment, FIG. 2): returned to background level
Endometrial size [2]: ≤ 18 mm
Compound: C[C@]12C[C@H](c3ccc(S(C)(=O)=O)cc3)C3=C4CCC(=O)C=C4CC[C@H]3[C@@H]1CC[C@@]2(O)C(F)(F)C(F)(F)F [Compound 1, (11β,17β)-17-Hydroxy-11-[4-(methylsulphonyl)phenyl]-17-(pentafluoroethyl)estra-4,9-dien-3-one]
Treatment-emergent critical endometrial findings ([1]; 0.5-4 mg once daily, 12 weeks): No treatment-emergent critical endometrial findings occurred
Resolution of PAECs after bleeding episodes ([1]; break / follow-up after end of treatment): already resolved after one bleeding; also recorded: resolve PAECs already after one bleeding
Endometrial histology in biopsies at the end of follow-up ([1]; end of follow-up, all available samples): benign endometrial histology changes (PAEC)
Treatment-emergent critical endometrial findings [2]: no treatment-emergent critical endometrial findings occurred
Fibroid size during treatment (uterine fibroids; 0.5-4 mg once daily, 12 weeks, MRI and TVU): dose-dependent reduction in fibroid size
Effect on fibroid size during follow-up (uterine fibroids; follow-up after 12 weeks treatment): partially sustained during follow-up
